Key:
[1] = molecular target: T1, G protein-coupled receptor, MAS (Mus musculus, UniProt P30554); assay: binding of labeled angiotensin-(1-7) in mouse kidney slices (normal or MAS knockout); settings: wild type mice
T1 construct: from tissue; host or cells: mouse kidney slices (wild type; MAS knockout as control)
T1 sequence (P30554 1-324): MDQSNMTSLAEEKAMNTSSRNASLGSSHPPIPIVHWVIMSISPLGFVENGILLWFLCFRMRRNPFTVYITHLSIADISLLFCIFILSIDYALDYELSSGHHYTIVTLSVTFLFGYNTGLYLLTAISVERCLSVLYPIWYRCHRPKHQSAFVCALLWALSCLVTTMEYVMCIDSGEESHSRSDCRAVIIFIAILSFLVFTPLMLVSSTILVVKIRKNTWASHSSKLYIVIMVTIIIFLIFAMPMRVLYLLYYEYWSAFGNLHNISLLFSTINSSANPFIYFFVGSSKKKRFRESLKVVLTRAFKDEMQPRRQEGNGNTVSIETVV
Procedure: (§1) After incubation for variable intervals at 4 °C the slices were exposed to autoradioghraphic films or analysed by flourescent microscopy. […] The functional test for the absence of binding in knockout mice was made using the water diuresis model (administration of 5% of the body weight, of H2O).

[2] = tested on: G protein-coupled receptor, MAS; assay: as above; settings: MAS knockout mice, 4 °C, autoradiography or fluorescent microscopy
Procedure: as §1

[3] = molecular target: ACE (Homo sapiens, UniProt P12821); settings: read-out: IC50 for inhibition of ACE; cited from earlier work
ACE, sequence (P12821 30-1306, species assumed): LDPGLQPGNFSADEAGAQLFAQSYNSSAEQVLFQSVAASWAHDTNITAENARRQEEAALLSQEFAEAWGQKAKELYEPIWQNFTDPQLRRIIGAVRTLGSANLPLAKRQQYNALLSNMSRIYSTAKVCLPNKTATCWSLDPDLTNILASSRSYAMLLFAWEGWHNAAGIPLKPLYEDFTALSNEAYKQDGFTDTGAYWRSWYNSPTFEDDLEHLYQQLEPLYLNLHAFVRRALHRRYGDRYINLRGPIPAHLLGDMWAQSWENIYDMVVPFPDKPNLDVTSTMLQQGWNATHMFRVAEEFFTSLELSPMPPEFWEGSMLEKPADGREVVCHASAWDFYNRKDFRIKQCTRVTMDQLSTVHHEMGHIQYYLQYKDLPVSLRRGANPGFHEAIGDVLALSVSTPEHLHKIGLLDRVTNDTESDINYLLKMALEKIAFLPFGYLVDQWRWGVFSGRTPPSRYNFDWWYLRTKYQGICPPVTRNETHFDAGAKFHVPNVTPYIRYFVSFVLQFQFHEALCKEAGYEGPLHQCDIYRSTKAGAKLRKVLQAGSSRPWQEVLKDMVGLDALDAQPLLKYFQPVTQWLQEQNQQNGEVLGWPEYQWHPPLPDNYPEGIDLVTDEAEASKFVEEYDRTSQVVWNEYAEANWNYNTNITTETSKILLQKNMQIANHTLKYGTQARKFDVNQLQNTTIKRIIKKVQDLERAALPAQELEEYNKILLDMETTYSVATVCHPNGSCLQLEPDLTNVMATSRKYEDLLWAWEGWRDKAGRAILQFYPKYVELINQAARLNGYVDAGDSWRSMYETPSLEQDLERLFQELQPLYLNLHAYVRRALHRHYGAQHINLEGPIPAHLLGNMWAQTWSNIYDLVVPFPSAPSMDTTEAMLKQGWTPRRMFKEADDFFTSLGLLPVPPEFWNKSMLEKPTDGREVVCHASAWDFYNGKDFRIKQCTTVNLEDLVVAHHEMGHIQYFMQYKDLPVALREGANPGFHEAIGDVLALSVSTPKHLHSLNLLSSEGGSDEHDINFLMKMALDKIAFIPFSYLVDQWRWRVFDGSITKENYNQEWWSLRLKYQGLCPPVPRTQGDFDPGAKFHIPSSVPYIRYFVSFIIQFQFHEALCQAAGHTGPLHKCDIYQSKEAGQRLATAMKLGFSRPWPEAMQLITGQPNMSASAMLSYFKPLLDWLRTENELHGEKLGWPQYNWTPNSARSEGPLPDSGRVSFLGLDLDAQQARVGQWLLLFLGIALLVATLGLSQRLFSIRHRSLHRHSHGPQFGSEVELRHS

[4] = tested on: G protein-coupled receptor, MAS; assay: water diuresis model in wild type and MAS knockout mice; format: in vivo, mouse; settings: MAS knockout mice, water load 5% of body weight
Procedure: (§2) Angiotensin-(1-7) labeled with 125I or rhodamine-angiotensin-(1-7), fluorescent, were incubated with mouse kidney slices from normal or MAS knockout animals. After incubation for variable intervals at 4 °C the slices were exposed to autoradioghraphic films or analysed by flourescent microscopy. In the knockout mice the specif binding for angiotensin-(1-7) disappeared while the binding for Ang II or Ang IV, used as controls, was inaltered. The Ang_(1-7) binding in kidney slices of wild type mice was displaced by the analogues D-Ala^7-Angiotensin-(1-7) e D-Pro^7-Angiotensin-(1-7). The functional test for the absence of binding in knockout mice was made using the water diuresis model (administration of 5% of the body weight, of H2O). […] In MAS knockout mice the antidiuretic effect of Ang-(1-7) was absent.

[5] = molecular target: T1, G protein-coupled receptor, MAS; assay: as above; format: in vivo; settings: wild type mice, 4 pmol/10 g BW, water load 5% of body weight
Procedure: as §2

[6] = tested on: Wistar rats; settings: free (not encapsulated) peptide, 25-50 ng in the RVLM, previous studies; cited from earlier work

Row | displacement of Ang-(1-7) binding in kidney slices [1] | binding in kidney slices of MAS knockout mice [2] | Compound | other results
1 | displaced | – | D-Pro7-Ang-(1-7) [D-Pro^7-Angiotensin-(1-7)] | –
2 | displaced | – | D-[Ala^7]-Ang-(1-7) [D-Ala^7-Angiotensin-(1-7)] | –
3 | – | disappeared | DRVYIHP [Ang-(1-7), Asp-Arg-Val-Tyr-Ile-His-Pro] | IC50 [3]: ~1000 nM; antidiuretic effect [4]: absent; urine volume (antidiuresis) [5]: reduction of the urine volume; duration of increase of PAM [6]: approximately 10 min; increase of PAM [6]: 15 mmHg
4 | – | inaltered | Ang II: main peptide of RAS, used as binding control (DRVYIHPF; Angiotensin-2; UniProt P01019 25-32, looked up) | –
5 | – | inaltered | CC[C@H](C)[C@H](NC(=O)[C@H](Cc1ccc(O)cc1)NC(=O)[C@@H](N)C(C)C)C(=O)N[C@@H](Cc1cnc[nH]1)C(=O)N1CCC[C@H]1C(=O)N[C@@H](Cc1ccccc1)C(=O)O [Ang IV] | –

Reference: patent US7723304B2, “Systems for delivery and release of angiotensin-(1-7)” (Universidade Federal De Minas Gerais—UFMG, priority 2001, dated 2010)
